Converted amounts (≈) assume the structure as drawn.
Experiments:
[1] = Solubility C (saturated concentration at 5° C.) of compound in low-polarity solvent and product εC; assay type: physicochemical; conditions: for ε · C: C at 5° C.; for solubility at 24 h: organic solvent or mixture, thermodynamic from solid; for solubility at 24 h / Solubility: at 5° C.
Protocol: The solubility C of each compound in each solvent was measured as follows.
Each compound was added to each solvent until a dissolution residue came to remain, and the mixture was subjected to an ultrasonic treatment for 30 minutes at 30° C. After the mixture was allowed to stand at 5° C. for 24 hours, centrifugal filtration was performed through a filter of 0.1 μm using a microcentrifuge (centrifugal force 5200×g). The resulting saturated solution was diluted to an appropriate concentration, and measurement of absorption spectra was performed on Hitachi spectrophotometer U-4100 using a quartz cell having an optical path length for measurement of 10 mm. The concentration of each compound was determined from a relationship between the absorbance at the absorption-maximum wavelength λmax (nm) and the molar extinction coefficient ε (L·mol^−1·cm^−1) previously measured, and the solubility C (mol·L^−1) was calculated. Moreover, the value of the product of the molar extinction coefficient ε (L·mol^−1·cm^−1) and the solubility C (mol·L^−1), εC, was determined.
Sudan Black B (manufactured by Tokyo Chemical Industry Co., Ltd.) that is a commercially available oil-soluble black dye was added to n-decane (relative permittivity 2.0, solubility in water 1 mg/L or less) until a dissolution residue came to remain, and the mixture was subjected to an ultrasonic treatment for 30 minutes at 30° C. After the mixture was allowed to stand at 5° C. for 24 hours, centrifugal filtration was performed through a filter of 0.1 μm using a microcentrifuge (centrifugal force 5200×g). The resulting saturated n-decane solution was diluted to an appropriate concentration.

[2] = Absorption-maximum wavelength λmax, molar extinction coefficient ε and solution colour in each solvent; assay type: physicochemical
Protocol: Each of the compounds 1 to 15 and the comparative example compounds 1 and 2 (1 mg each) was dissolved in each solvent (100 ml) and measurement of absorption spectra was performed on Hitachi spectrophotometer U-4100 using a quartz cell having an optical path length for measurement of 10 mm. From the resulting spectra, absorption-maximum wavelength λmax (nm) and molar extinction coefficient ε ([…]) were determined.

[3] = Isopar M, at absorption-maximum wavelength
[4] = n-decane, at absorption-maximum wavelength
[5] = tetradecane, at absorption-maximum wavelength
[6] = mixed solvent of n-decane/Isopar L (mixing ratio 1/1)

ε · C ([1]; Isopar M) | ε · C ([1]; n-decane) | solubility at 24 h ([1]; in n-decane) | ε · C ([1]; tetradecane) | Absorption-maximum wavelength ([2]; Isopar M) | Color tone ([2]; Isopar M solution) | ε [2, 3] | Absorption-maximum wavelength ([2]; n-decane) | Color tone ([2]; n-decane solution) | ε [2, 4] | Absorption-maximum wavelength ([2]; tetradecane) | Color tone ([2]; tetradecane solution) | ε [2, 5] | Solubility ([1]; in n-decane) | Solubility ([1]; in tetradecane) | SMILES | further results
1200 cm⁻¹ | 460 cm⁻¹ | 27 mM (≈ 12.5 mg/mL) | 1600 cm⁻¹ | 651 nm | blue | 17000 L/mol/cm | 652 nm | blue | 17000 L/mol/cm | 651 nm | blue | 17000 L/mol/cm | – | – | CCCCC(CC)CNc1ccc(NCC(CC)CCCC)c2c1C(=O)c1ccccc1C2=O (stereo not drawn) [Comparative example compound 1, reference compound] | solubility at 24 h ([1]; in Isopar M): 71 mM (≈ 32.9 mg/mL); solubility at 24 h ([1]; in tetradecane): 94 mM (≈ 43.5 mg/mL)
10400 cm⁻¹ | 7000 cm⁻¹ | – | 9300 cm⁻¹ | 634 nm | blue | 65000 L/mol/cm | 633 nm | blue | 66000 L/mol/cm | 635 nm | blue | 65000 L/mol/cm | 0.11 mol/L (≈ 80 mg/mL) | 0.14 mol/L (≈ 102 mg/mL) | CCCCC(CC)COC(=O)c1ccc(N=Nc2cc(C#N)c(N=Nc3ccc(N(CC(CC)CCCC)CC(CC)CCCC)cc3C)s2)cc1 (stereo not drawn) [Compound 6] | Solubility ([1]; in Isopar M): 0.16 mol/L (≈ 116 mg/mL)
– | 1800 cm⁻¹ | 24 mM (≈ 16.1 mg/mL) | – | – | – | – | 619 nm | blue | 76000 L/mol/cm | – | – | – | – | – | CCCCc1ccc(N=Nc2cc(C#N)c(/N=N/c3ccc(N(CC(CC)CCCC)CC(CC)CCCC)cc3NC(C)=O)s2)cc1 (stereo not drawn) [Compound 1] | –
– | 1700 cm⁻¹ | 27 mM (≈ 16.9 mg/mL) | – | – | – | – | 613 nm | blue | 64000 L/mol/cm | – | – | – | – | – | CCCCc1ccc(N=Nc2cc(C#N)c(/N=N/c3ccc(N(CC(CC)CCCC)CC(CC)CCCC)cc3C)s2)cc1 (stereo not drawn) [Compound 15] | –
2000 cm⁻¹ | 3300 cm⁻¹ | 58 mM (≈ 33.5 mg/mL) | 3300 cm⁻¹ | 618 nm | blue | 59000 L/mol/cm | 617 nm | blue | 57000 L/mol/cm | 618 nm | blue | 59000 L/mol/cm | – | – | CCCCC(CC)CN(CC(CC)CCCC)c1cc(NC(C)=O)c(/N=N/c2nc(Cl)c(C=O)s2)cc1OC (stereo not drawn) [Compound 9] | solubility at 24 h ([1]; in Isopar M): 34 mM (≈ 19.7 mg/mL); solubility at 24 h ([1]; in tetradecane): 34 mM (≈ 19.7 mg/mL)
≤ 10 or cm^−1 | ≤ 10 or cm^−1 | ≤ 0.01 mM | ≤ 10 or cm^−1 | 514 nm | red | 39000 L/mol/cm | 512 nm | red | 34000 L/mol/cm | 514 nm | red | 39000 L/mol/cm | – | – | C=CCn1c(N=Nc2ccc(N(CCC)CCC)cc2NC(C)=O)nc(C#N)c1C#N [Comparative example compound 2, reference compound] | solubility at 24 h ([1]; in Isopar M): ≤ 0.01 mM; solubility at 24 h ([1]; in tetradecane): ≤ 0.01 mM
– | 1800 cm⁻¹ | 27 mM (≈ 18.9 mg/mL) | 1300 cm⁻¹ | – | – | – | 638 nm | blue | 66000 L/mol/cm | 640 nm | blue | 64000 L/mol/cm | – | – | CCCCC(CC)CN(CC(CC)CCCC)c1ccc(/N=N/c2sc(N=Nc3ccc(C(=O)OCC(C)C)cc3)cc2C#N)c(C(C)C)c1 (stereo not drawn) [Compound 4] | solubility at 24 h ([1]; in tetradecane): 20 mM (≈ 14 mg/mL)
– | 7100 cm⁻¹ | – | – | – | – | – | 546 nm | red | 47000 L/mol/cm | – | – | – | 0.15 mol/L (≈ 98 mg/mL) | – | CCCCOc1ccc(N=Nc2sc(N=Nc3ccc(N(CC(CC)CCCC)CC(CC)CCCC)cc3Cl)nc2C)cc1 (stereo not drawn) [Compound 14] | –
– | 16000 cm⁻¹ | 220 mM (≈ 157 mg/mL) | – | – | – | – | 667 nm | blue | 75000 L/mol/cm | – | – | – | – | – | CCCCCc1ccc(N=Nc2cc(C#N)c(/N=N/c3cc(OC)c(N(CC(CC)CCCC)CC(CC)CCCC)cc3NC(C)=O)s2)cc1 (stereo not drawn) [Compound 5] | –
– | 12000 cm⁻¹ | – | – | – | – | – | 582 nm | blue | 46000 L/mol/cm | – | – | – | 0.25 mol/L (≈ 168 mg/mL) | – | CCCCC(CC)CN(CC(CC)CCCC)c1cc(NC(C)=O)c(N=Nc2sc(C(=O)OCC)c(C)c2C(=O)OCC)cc1OC (stereo not drawn) [Compound 12] | –
– | 1500 cm⁻¹ | – | 1500 cm⁻¹ | – | – | – | 635 nm | blue | 57000 L/mol/cm | 637 nm | blue | 54000 L/mol/cm | 0.027 mol/L (≈ 18.5 mg/mL) | 0.027 mol/L (≈ 18.5 mg/mL) | CCCCC(CC)CN(CC(CC)CCCC)c1ccc(N=Nc2sc(N=Nc3ccc(C(=O)OCC(C)C)cc3)cc2C#N)c(CC)c1 (stereo not drawn) [Compound 2] | –
– | 6900 cm⁻¹ | – | – | – | – | – | 640 nm | blue | 50000 L/mol/cm | – | – | – | 0.14 mol/L (≈ 92 mg/mL) | – | CCCCc1ccc(N=Nc2cc(C#N)c(N=Nc3cc(OC)c(N(CC(CC)CCCC)CC(CC)CCCC)cc3C)s2)cc1 (stereo not drawn) [Compound 7] | –
5500 cm⁻¹ | 5700 cm⁻¹ | – | 2000 cm⁻¹ | 657 nm | blue | 54000 L/mol/cm | 656 nm | blue | 61000 L/mol/cm | 658 nm | blue | 55000 L/mol/cm | 0.093 mol/L (≈ 70.4 mg/mL) | 0.036 mol/L (≈ 27.3 mg/mL) | CCCCC(CC)COC(=O)C(C#N)=Cc1sc(N=Nc2cc(OC)c(N(CC(CC)CCCC)CC(CC)CCCC)cc2NC(C)=O)nc1Cl (stereo not drawn) [Compound 10] | Solubility ([1]; in Isopar M): 0.064 mol/L (≈ 48.5 mg/mL)
3400 cm⁻¹ | 4700 cm⁻¹ | – | 3500 cm⁻¹ | 638 nm | blue | 78000 L/mol/cm | 637 nm | blue | 79000 L/mol/cm | 639 nm | blue | 79000 L/mol/cm | 0.059 mol/L (≈ 45.4 mg/mL) | 0.044 mol/L (≈ 33.9 mg/mL) | CCCCC(CC)COC(=O)c1ccc(N=Nc2cc(C#N)c(N=Nc3ccc(N(CC(CC)CCCC)CC(CC)CCCC)cc3NC(C)=O)s2)cc1 (stereo not drawn) [Compound 8] | Solubility ([1]; in Isopar M): 0.044 mol/L (≈ 33.9 mg/mL)

SMILES | ε · C ([1]; Isopar M) | ε · C ([1]; n-decane) | solubility at 24 h ([1]; in n-decane) | ε · C ([1]; tetradecane) | Absorption-maximum wavelength ([2]; Isopar M) | Color tone ([2]; Isopar M solution) | ε [2, 3] | Absorption-maximum wavelength ([2]; n-decane) | Color tone ([2]; n-decane solution) | ε [2, 4] | Absorption-maximum wavelength ([2]; tetradecane) | Color tone ([2]; tetradecane solution) | ε [2, 5] | Solubility ([1]; in n-decane) | Solubility ([1]; in tetradecane) | further results
CCCCc1ccc(N=Nc2cc(C#N)c(N=Nc3cc(OC)c(N(CC(CC)CCCC)CC(CC)CCCC)cc3NC(C)=O)s2)cc1 (stereo not drawn) [Compound 3] | 11100 cm⁻¹ | 9900 cm⁻¹ | – | 10600 cm⁻¹ | 668 nm | blue | 72000 L/mol/cm | 667 nm | blue | 73000 L/mol/cm | 669 nm | blue | 73000 L/mol/cm | 0.14 mol/L (≈ 98 mg/mL) | 0.15 mol/L (≈ 105 mg/mL) | ε · C ([1]; Isopar L): 8200 cm⁻¹; Solubility ([1]; in Isopar L): 0.11 mol/L (≈ 77 mg/mL); Solubility ([1]; in Isopar M): 0.15 mol/L (≈ 105 mg/mL); Solubility ([1]; in mixed solvent of n-decane/Isopar L (mixing ratio 1/1)): 0.063 mol/L; ε · C [1, 6]: 4700 cm⁻¹; Absorption-maximum wavelength ([2]; Isopar L): 667 nm; Color tone ([2]; Isopar L solution): blue; ε ([2]; Isopar L, at absorption-maximum wavelength): 75000 L/mol/cm; Absorption-maximum wavelength [2, 6]: 667 nm; Color tone [2, 6]: blue; ε [2, 6]: 75000 L/mol/cm

From patent publication US9200171B2, “AZO compound and ink containing the compound” (MITSUBISHI CHEMICAL CORPORATION, priority 2011, dated 2015)
